Experimental data as given in patent US20200216906A1, “METHODS AND COMPOSITIONS RELATING TO THE DIAGNOSIS AND TREATMENT OF CANCER” (PRESIDENT AND FELLOWS OF HARVARD COLLEGE, priority 2015, published 2020).
Structures can show the parent of a compound that is named as a salt. Where two headings read alike, the source gives them in different places.

Columns and labels:
[1] = test system: pancreatic cancer cell lines; test: Kinetic cell growth assay, panel of pancreatic cancer cell lines; format: cell-based, human; conditions: for IC50: PDAC cell lines
Summary of the method: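 Pancreatic cancer cells seeded at 2-4×10^3 (low) or 15-20×10^3 (high density) per well; compounds added at several doses 24 h after plating. Confluence imaged live (Incucyte) hourly for 48-144 h or until DMSO controls reached 100% confluence.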

[2] = test system: patient-derived xenograft (PDX) models; test: Patient-derived xenograft (PDX) models, tumor growth inhibition; format: in vivo, mouse; conditions: 20 PDX models, p=0.01
Source text: An alternative to an endogenous mouse models for capturing effects of the tumor environment are patient-derived xenograft (PDX) models. […] At the cellular level, PDX models also preserve the intra-tumoral heterogeneity, as well as the molecular characteristics of the original cancer, including copy number variants, single-nucleotide polymorphisms, and gene expression profiles (Choi et al., 2014; DeRose et al., 2011). […] When patient-derived xenograft PDX models were used to assess whether YAP activation sensitizes solid tumors to gemcitabine significant effects were found. The studies were performed in the following manner: Tumor fragments (around 64 mm^3) were implanted into the flanks of recipient mice and tumor dimensions recorded with digital calipers. Once tumor implants reached a volume of approximately 200 mm3, dosing with gemcitabine (or vehicle control) began. At the completion of the study completion, the percent tumor growth inhibition (% TGI) was calculated for gemcitabine (G) and the vehicle control (C) using initial (i) and final (f) tumor measurements by the formula: % TGI=[1−(Gf−Gi)/(Cf−Ci)]x100.
Patient-derived xenograft (PDX) models. PDX models were established by Champions Oncology (Baltimore, Md.) as described previously (Khor et al., 2015). Drug response to 20 PDX models was obtained from Champions TumorGraft® Database (available on the world wide web at database.championsoncology.com/).
Immunohistochemistry. Human primary tumor tissue slides were obtained from Champions Oncology (Baltimore, Md.). Immunohistochemistry using anti YAP1 antibody (Abcam Cat # ab52771) was performed as previously described (Shi et al., 1999). For negative controls, primary antibody was omitted. The intensity of YAP staining was assessed by an independent pathologist using a four-grade scale: “0” is negative. “0.5” is borderline staining with no significance. “1” is weak staining. “1.5” is weak staining with foci of moderate staining. “2” is moderate staining. […] YAP scoring index was calculated based on staining intensity * % of positive target cells.

[3] = test system: H2052 mesothelioma cells (LATS2 deletion); test: Cell growth of H2052 mesothelioma cells; format: cell-based

With `Nc1ccn([C@@H]2O[C@H](CO)[C@@H](O)C2(F)F)c(=O)n1` [Gemcitabine, Gemcitabine hydrochloride] as the molecule, how does the IC50 ([1]; Homo sapiens, Pancreatic cancer cell, dense culture, read-out: IC50, resistant in dense culture) read?
The IC50 was > 1 µM.

What about the IC50 ([1]; Homo sapiens, Pancreatic cancer cell, sparse culture, read-out: IC50, sensitive in sparse culture) of the same molecule?
Its IC50 is < 0.1 µM.

And the EC50 ([1]; Homo sapiens, Pancreatic cancer cell, low crowding conditions (10-25% confluence), all cell lines tested, read-out: EC50 on cell growth)?
The EC50 was < 0.2 µM.

What about the “Dependence of cellular response on cell crowding” value ([1]; seven PDAC cell lines, threshold >100 fold difference in EC50) of the same molecule?
The value was “dependent on cell crowding”.

What about the “Density dependence of efficacy” value ([1]; seven pancreatic cancer cell lines, sparse and dense conditions) of the same molecule?
The value was “density-dependent”.

What about the “Difference in % TGI, high vs low YAP activity tumors” value [2] of the same molecule?
The value was ~2 fold.

What about the “Sensitivity of mesothelioma cells harboring LATS2 deletion” value [3] of the same molecule?
Its value is “sensitive”.
